Each block holds one compound with its values, some of them ahead of it.
Assay: Carotenoid ester content and deposition rate in egg yolk of laying hens (HPLC)
Assay type: in vivo, laying hens (ISA Brown)
Set-up: Deposition Rate Value: unit not given here
Details: for Deposition Rate Target Values % of Controls / Ethyl β-apo-8′-carotenoate Equivalents % of Controls / Deposition Rate % of Controls / Deposition Rate Target Values / Ethyl β-apo-8′-carotenoate Equivalents / Deposition Rate Value: egg yolk; for Deposition Rate % of Controls / Deposition Rate Value: Table 9; for concentration in the egg yolk: versus the control
In short: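 Hens were first depleted for at least 28 days on a low-carotenoid basal diet (<2 mg total xanthophylls/kg, also the control diet), then fed mash supplemented with the pigments ad libitum for three weeks. Pooled homogenised yolk was extracted with ethanol/n-hexane and analysed by HPLC, calibrated with all-E ethyl β-apo-8′-carotenoate. Response factors were adjusted by molecular weight, and Z-isomers were corrected by a factor of 1.4.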

Deposition Rate Target Values % of Controls (average over doses, Table 7): 119%
Ethyl β-apo-8′-carotenoate Equivalents % of Controls (average over doses, Table 7): 106%
Deposition Rate % of Controls (average over doses): 119%
Deposition Rate Target Values (trial H-25/99, 5.0 mg/kg feed): 60.7%
Deposition Rate Target Values % of Controls (trial H-25/99, 5.0 mg/kg feed): 119%
Ethyl β-apo-8′-carotenoate Equivalents (trial H-25/99, 5.0 mg/kg feed): 16.6 mg/kg
Ethyl β-apo-8′-carotenoate Equivalents % of Controls (trial H-25/99, 5.0 mg/kg feed): 106%
Deposition Rate % of Controls (trial H-25/99, 5.0 mg/kg feed): 119%
Deposition Rate Value (trial H-25/99, 5.0 mg/kg feed): 61
concentration in the egg yolk: in the range of the control
Structure (SMILES): CC(C=CC=C(C)C=CC1=C(C)CCCC1(C)C)=CC=CC=C(C)C=CC=C(C)C(=O)OC(C)(C)C [compound (18), tert. butyl beta-apo-8′-carotenoate]

Deposition Rate Target Values % of Controls (average over doses, Table 7): 101%
Ethyl β-apo-8′-carotenoate Equivalents % of Controls (average over doses, Table 7): 91%
Deposition Rate % of Controls (average over doses): 101%
Deposition Rate Target Values (trial H-12/99, 1.0 mg/kg feed): 44%
Deposition Rate Target Values % of Controls (trial H-12/99, 1.0 mg/kg feed): 97%
Ethyl β-apo-8′-carotenoate Equivalents (trial H-12/99, 1.0 mg/kg feed): 2.6 mg/kg
Ethyl β-apo-8′-carotenoate Equivalents % of Controls (trial H-12/99, 1.0 mg/kg feed): 97%
Deposition Rate % of Controls (trial H-12/99, 1.0 mg/kg feed): 97%
Deposition Rate Value (trial H-12/99, 1.0 mg/kg feed): 44
Deposition Rate Target Values (trial H-12/99, 2.0 mg/kg feed): 44%
Deposition Rate Target Values % of Controls (trial H-12/99, 2.0 mg/kg feed): 100%
Ethyl β-apo-8′-carotenoate Equivalents (trial H-12/99, 2.0 mg/kg feed): 5.2 mg/kg
Ethyl β-apo-8′-carotenoate Equivalents % of Controls (trial H-12/99, 2.0 mg/kg feed): 94%
Deposition Rate % of Controls (trial H-12/99, 2.0 mg/kg feed): 100%
Deposition Rate Value (trial H-12/99, 2.0 mg/kg feed): 44
Deposition Rate Target Values (trial H-12/99, 4.0 mg/kg feed): 42%
Deposition Rate Target Values % of Controls (trial H-12/99, 4.0 mg/kg feed): 85%
Ethyl β-apo-8′-carotenoate Equivalents (trial H-12/99, 4.0 mg/kg feed): 9.6 mg/kg
Ethyl β-apo-8′-carotenoate Equivalents % of Controls (trial H-12/99, 4.0 mg/kg feed): 81%
Deposition Rate % of Controls (trial H-12/99, 4.0 mg/kg feed): 85%
Deposition Rate Value (trial H-12/99, 4.0 mg/kg feed): 42
Deposition Rate Target Values (trial H-12/99, 8.0 mg/kg feed): 49%
Deposition Rate Target Values % of Controls (trial H-12/99, 8.0 mg/kg feed): 104%
Ethyl β-apo-8′-carotenoate Equivalents (trial H-12/99, 8.0 mg/kg feed): 23.1 mg/kg
Ethyl β-apo-8′-carotenoate Equivalents % of Controls (trial H-12/99, 8.0 mg/kg feed): 96%
Deposition Rate % of Controls (trial H-12/99, 8.0 mg/kg feed): 104%
Deposition Rate Value (trial H-12/99, 8.0 mg/kg feed): 49
Deposition Rate Target Values (trial H-19/98, 4.0 mg/kg feed): 54%
Deposition Rate Target Values % of Controls (trial H-19/98, 4.0 mg/kg feed): 117%
Ethyl β-apo-8′-carotenoate Equivalents (trial H-19/98, 4.0 mg/kg feed): 11.1 mg/kg
Ethyl β-apo-8′-carotenoate Equivalents % of Controls (trial H-19/98, 4.0 mg/kg feed): 95%
Deposition Rate % of Controls (trial H-19/98, 4.0 mg/kg feed): 117%
Deposition Rate Value (trial H-19/98, 4.0 mg/kg feed): 54
Deposition Rate % of Controls (trial H-25/98, 5.0 mg/kg feed): 106%
Deposition Rate Value (trial H-25/98, 5.0 mg/kg feed): 50
Deposition Rate Target Values (trial H-25/99, 5.0 mg/kg feed): 50%
Deposition Rate Target Values % of Controls (trial H-25/99, 5.0 mg/kg feed): 100%
Ethyl β-apo-8′-carotenoate Equivalents (trial H-25/99, 5.0 mg/kg feed): 13.3 mg/kg
Ethyl β-apo-8′-carotenoate Equivalents % of Controls (trial H-25/99, 5.0 mg/kg feed): 84%
concentration in the egg yolk: in the range of the control
Structure (SMILES): CC1=C(/C=C/C(C)=C/C=C/C(C)=C/C=C/C=C(C)/C=C/C=C(\C)C(=O)OC(C)C)C(C)(C)CCC1 [compound (17), isopropyl beta-apo-8′-carotenoate]

Deposition Rate Target Values % of Controls (average over doses, Table 7): 101%
Ethyl β-apo-8′-carotenoate Equivalents % of Controls (average over doses, Table 7): 94%
Deposition Rate % of Controls (average over doses): 101%
Deposition Rate Target Values (trial H-25/99, 5.0 mg/kg feed): 51.2%
Deposition Rate Target Values % of Controls (trial H-25/99, 5.0 mg/kg feed): 101%
Ethyl β-apo-8′-carotenoate Equivalents (trial H-25/99, 5.0 mg/kg feed): 14.6 mg/kg
Ethyl β-apo-8′-carotenoate Equivalents % of Controls (trial H-25/99, 5.0 mg/kg feed): 94%
Deposition Rate % of Controls (trial H-25/99, 5.0 mg/kg feed): 101%
Deposition Rate Value (trial H-25/99, 5.0 mg/kg feed): 51
concentration in the egg yolk: in the range of the control
Structure (SMILES): CCCC(C)OC(=O)C(C)=CC=CC(C)=CC=CC=C(C)C=CC=C(C)C=CC1=C(C)CCCC1(C)C (stereo not drawn) [compound (19), 2-pentyl beta-apo-8′-carotenoate]

— patent publication US6896895B2, “Carotenoid esters, carotenoid-enriched feeds, and methods of pigmenting foods and foodstuffs” (DSM IP Assets B.V., priority 2000, dated 2005)
